Earlier results, collected in article PMC7178755 (Toxicology and applied pharmacology, 2019).
Where two headings read alike, the source gives them in different places. Marks after values point to notes of the source that are not given here.

Key:
[1] = rat uterotrophic assay; administered orally; ref Conley et al., 2016; cited from earlier work
[2] = free BPA; female SD rats; 0.1 mg/kg gavage; ref Dorege et al., (2010); cited from earlier work
[3] = free BPA; female CD-1 mice; 100 mg/kg gavage; ref Taylor et al., (2015); cited from earlier work
[4] = free BPA; female Rhesus Monkeys; 0.4 mg/kg oral; ref Taylor et al., (2015); cited from earlier work
[5] = rat, in vivo, 100 mg/kg; cited from earlier work

| SMILES | ED50 [1] [mg/kg/day] | AUC0−∞ [2] | Cmax [2] [nM] | Dose-normalized AUC0−∞ [2] | Dose-normalized Cmax [2] | AUC0−∞ [3] | Cmax [3] [nM] | Dose-normalized AUC0−∞ [3] | Dose-normalized Cmax [3] | Tmax [3] [h] | AUC0−∞ [4] | Cmax [4] [nM] | Half-life (terminal, beta) [4] [h] | Tmax [4] [h] | time of maximum plasma concentration [5] [min] |
| --- | --- | --- | --- | --- | --- | --- | --- | --- | --- | --- | --- | --- | --- | --- | --- |
| CC(C)(c1ccc(O)cc1)c1ccc(O)cc1 [BPA, bisphenol A] | 1118.0 | 0.0026^g nmol.h/mL | 0.39 | 5.91 (nmol.h/mL)/(mmol/kg) | 0.886 (nmol/mL)/(mmol/kg) | 13.1^i nmol.h/mL | 4160 | 29.8 (nmol.h/mL)/(mmol/kg) | 9.47 (nmol/mL)/(mmol/kg) | 1 | 0.0589^i nmol.h/mL | 17.3 | 8.88 | 1 |  |
| O=C(O)[C@H]1O[C@@H](Oc2ccc(C(c3ccc(O)cc3)(C(F)(F)F)C(F)(F)F)cc2)[C@H](O)[C@@H](O)[C@@H]1O [BPAF-glucuronide] |  |  |  |  |  |  |  |  |  |  |  |  |  |  | 30 |
